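Dose response: 5 concentrations. Exposure: 48 h. Format: 96-well plates. Endpoint: linear interpolation; highest concentration if not reached. Here, GI50 denotes the concentration required for 50% inhibition of growth. TGI is the concentration that stops growth completely.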
Columns and labels:
Assay in all cases: NCI tumour cell line growth inhibition, 48 h
786-0 renal = tested on: 786-0 renal
A498 renal = tested on: A498 renal
A549 NSCLC = tested on: A549 NSCLC
ACHN renal = tested on: ACHN renal
BT-549 breast = tested on: BT-549 breast
CAKI-1 renal = tested on: CAKI-1 renal
CCRF-CEM leukemia = tested on: CCRF-CEM leukemia
COLO 205 colon = tested on: COLO 205 colon
DU-145 prostate = tested on: DU-145 prostate
EKVX NSCLC = tested on: EKVX NSCLC
HCC-2998 colon = tested on: HCC-2998 colon
HCT-116 colon = tested on: HCT-116 colon
HCT-15 colon = tested on: HCT-15 colon
HL-60(TB) leukemia = tested on: HL-60(TB) leukemia
HOP-62 NSCLC = tested on: HOP-62 NSCLC
HOP-92 NSCLC = tested on: HOP-92 NSCLC
HS 578T breast = tested on: HS 578T breast
HT29 colon = tested on: HT29 colon
IGROV1 ovarian = tested on: IGROV1 ovarian
K-562 leukemia = tested on: K-562 leukemia
KM12 colon = tested on: KM12 colon
LOX IMVI melanoma = tested on: LOX IMVI melanoma
M14 melanoma = tested on: M14 melanoma
MALME-3M melanoma = tested on: MALME-3M melanoma
MCF7 breast = tested on: MCF7 breast
MDA-MB-231 breast = tested on: MDA-MB-231 breast
MDA-MB-435 = tested on: MDA-MB-435
MDA-MB-468 breast = tested on: MDA-MB-468 breast
MOLT-4 leukemia = tested on: MOLT-4 leukemia
NCI-H226 lung = tested on: NCI-H226 lung
NCI-H23 lung = tested on: NCI-H23 lung
NCI-H460 lung = tested on: NCI-H460 lung
NCI-H522 lung = tested on: NCI-H522 lung
NCI/ADR-RES ovarian = tested on: NCI/ADR-RES ovarian
OVCAR-3 ovarian = tested on: OVCAR-3 ovarian
OVCAR-4 ovarian = tested on: OVCAR-4 ovarian
OVCAR-5 ovarian = tested on: OVCAR-5 ovarian
OVCAR-8 ovarian = tested on: OVCAR-8 ovarian
PC-3 prostate = tested on: PC-3 prostate
RPMI-8226 leukemia = tested on: RPMI-8226 leukemia
RXF 393 renal = tested on: RXF 393 renal
SF-268 CNS = tested on: SF-268 CNS
SF-295 CNS = tested on: SF-295 CNS
SF-539 CNS = tested on: SF-539 CNS
SK-MEL-2 melanoma = tested on: SK-MEL-2 melanoma
SK-MEL-28 melanoma = tested on: SK-MEL-28 melanoma
SK-MEL-5 melanoma = tested on: SK-MEL-5 melanoma
SK-OV-3 ovarian = tested on: SK-OV-3 ovarian
SN12C renal = tested on: SN12C renal
SNB-19 CNS = tested on: SNB-19 CNS
SR leukemia = tested on: SR leukemia
SW-620 colon = tested on: SW-620 colon
T-47D breast = tested on: T-47D breast
TK-10 renal = tested on: TK-10 renal
U251 CNS = tested on: U251 CNS
UACC-257 melanoma = tested on: UACC-257 melanoma
UACC-62 melanoma = tested on: UACC-62 melanoma
UO-31 renal = tested on: UO-31 renal

SMILES: CC(=O)c1ccc(Nc2nc(SC(C)C)nc(-c3ccccc3)c2C#N)cc1
- GI50 (786-0 renal): 2.07 µM
- TGI (786-0 renal): 4.81 µM
- GI50 (A498 renal): 24.2 µM
- TGI (A498 renal): 71.9 µM
- GI50 (A549 NSCLC): 72.9 µM
- TGI (A549 NSCLC): > 100 µM
- GI50 (ACHN renal): 2.15 µM
- TGI (ACHN renal): 5.17 µM
- GI50 (BT-549 breast): 24.8 µM
- TGI (BT-549 breast): > 100 µM
- GI50 (CAKI-1 renal): 2.82 µM
- TGI (CAKI-1 renal): 13.2 µM
- GI50 (CCRF-CEM leukemia): > 100 µM
- TGI (CCRF-CEM leukemia): > 100 µM
- GI50 (COLO 205 colon): 15.6 µM
- TGI (COLO 205 colon): > 100 µM
- GI50 (DU-145 prostate): 17.6 µM
- TGI (DU-145 prostate): > 100 µM
- GI50 (EKVX NSCLC): 4.71 µM
- TGI (EKVX NSCLC): > 100 µM
- GI50 (HCC-2998 colon): 15.8 µM
- TGI (HCC-2998 colon): > 100 µM
- GI50 (HCT-116 colon): 1.34 µM
- TGI (HCT-116 colon): 6.69 µM
- GI50 (HCT-15 colon): 7.61 µM
- TGI (HCT-15 colon): > 100 µM
- GI50 (HL-60(TB) leukemia): > 100 µM
- TGI (HL-60(TB) leukemia): > 100 µM
- GI50 (HOP-62 NSCLC): 2.13 µM
- TGI (HOP-62 NSCLC): 5.38 µM
- GI50 (HOP-92 NSCLC): 1.91 µM
- TGI (HOP-92 NSCLC): 7.86 µM
- GI50 (HS 578T breast): 3.09 µM
- TGI (HS 578T breast): 23.8 µM
- GI50 (HT29 colon): 3.81 µM
- TGI (HT29 colon): > 100 µM
- GI50 (IGROV1 ovarian): 8.02 µM
- TGI (IGROV1 ovarian): > 100 µM
- GI50 (K-562 leukemia): 9.17 µM
- TGI (K-562 leukemia): > 100 µM
- GI50 (KM12 colon): > 100 µM
- TGI (KM12 colon): > 100 µM
- GI50 (LOX IMVI melanoma): 3.51 µM
- TGI (LOX IMVI melanoma): > 100 µM
- GI50 (M14 melanoma): 21.9 µM
- TGI (M14 melanoma): > 100 µM
- GI50 (MALME-3M melanoma): 14.1 µM
- TGI (MALME-3M melanoma): > 100 µM
- GI50 (MCF7 breast): 4.74 µM
- TGI (MCF7 breast): > 100 µM
- GI50 (MDA-MB-231 breast): 2.9 µM
- TGI (MDA-MB-231 breast): 8.23 µM
- GI50 (MDA-MB-435): 5.06 µM
- TGI (MDA-MB-435): > 100 µM
- GI50 (MDA-MB-468 breast): 5.08 µM
- TGI (MDA-MB-468 breast): 50.2 µM
- GI50 (MOLT-4 leukemia): > 100 µM
- TGI (MOLT-4 leukemia): > 100 µM
- GI50 (NCI-H226 lung): 2.54 µM
- TGI (NCI-H226 lung): 7.14 µM
- GI50 (NCI-H23 lung): 2.46 µM
- TGI (NCI-H23 lung): 11.2 µM
- GI50 (NCI-H460 lung): 3.53 µM
- TGI (NCI-H460 lung): > 100 µM
- GI50 (NCI-H522 lung): 8.3 µM
- TGI (NCI-H522 lung): > 100 µM
- GI50 (NCI/ADR-RES ovarian): 2.82 µM
- TGI (NCI/ADR-RES ovarian): 10.6 µM
- GI50 (OVCAR-3 ovarian): 40 µM
- TGI (OVCAR-3 ovarian): > 100 µM
- GI50 (OVCAR-4 ovarian): 5.07 µM
- TGI (OVCAR-4 ovarian): > 100 µM
- GI50 (OVCAR-5 ovarian): 21.2 µM
- TGI (OVCAR-5 ovarian): > 100 µM
- GI50 (OVCAR-8 ovarian): 3.29 µM
- TGI (OVCAR-8 ovarian): > 100 µM
- GI50 (PC-3 prostate): 8.98 µM
- TGI (PC-3 prostate): > 100 µM
- GI50 (RPMI-8226 leukemia): > 100 µM
- TGI (RPMI-8226 leukemia): > 100 µM
- GI50 (RXF 393 renal): 2.08 µM
- TGI (RXF 393 renal): 7.48 µM
- GI50 (SF-268 CNS): 5.35 µM
- TGI (SF-268 CNS): > 100 µM
- GI50 (SF-295 CNS): 1.4 µM
- TGI (SF-295 CNS): 3.25 µM
- GI50 (SF-539 CNS): 2.17 µM
- TGI (SF-539 CNS): 7.69 µM
- GI50 (SK-MEL-2 melanoma): > 100 µM
- TGI (SK-MEL-2 melanoma): > 100 µM
- GI50 (SK-MEL-28 melanoma): 16.9 µM
- TGI (SK-MEL-28 melanoma): > 100 µM
- GI50 (SK-MEL-5 melanoma): 5.03 µM
- TGI (SK-MEL-5 melanoma): 20.3 µM
- GI50 (SK-OV-3 ovarian): 5.02 µM
- TGI (SK-OV-3 ovarian): 38.9 µM
- GI50 (SN12C renal): 11.4 µM
- TGI (SN12C renal): > 100 µM
- GI50 (SNB-19 CNS): 2.05 µM
- TGI (SNB-19 CNS): 4.63 µM
- GI50 (SR leukemia): > 100 µM
- TGI (SR leukemia): > 100 µM
- GI50 (SW-620 colon): 3.77 µM
- TGI (SW-620 colon): 64.1 µM
- GI50 (T-47D breast): 81.6 µM
- TGI (T-47D breast): > 100 µM
- GI50 (TK-10 renal): 2.54 µM
- TGI (TK-10 renal): 5.67 µM
- GI50 (U251 CNS): 1.32 µM
- TGI (U251 CNS): 4.26 µM
- GI50 (UACC-257 melanoma): > 100 µM
- TGI (UACC-257 melanoma): > 100 µM
- GI50 (UACC-62 melanoma): 43.8 µM
- TGI (UACC-62 melanoma): > 100 µM
- GI50 (UO-31 renal): 2.03 µM
- TGI (UO-31 renal): 4.94 µM

— PubChem BioAssay (NCI)
